From article PMC4535335 (Bioorganic & medicinal chemistry letters, 2014)

Experiments:
[1] = cited from earlier work
[2] = cited from earlier work; remark: listed apart in the source
[3] = plasma protein binding; cited from earlier work
[4] = intrinsic clearance in rat hepatic microsomes fortified with NADPH; format: in vitro ADME; conditions: OCD3 for OCH3
[5] = intrinsic clearance in human hepatic microsomes fortified with NADPH; format: in vitro ADME

Question: For `O=C(c1ccc(F)c(F)c1)N1CCN2C(=O)c3ccccc3[C@@]12c1ccc(Cl)cc1` [ML375], which rat brain fu [1] is on record?
Answer: 0.003

Question: And the “brain:plasma Kp” value [2]?
Answer: 1.8

Question: And the human fu [3]?
Answer: 0.013

Question: What does the source list for `[2H]C([2H])([2H])Oc1ccc([C@@]23c4ccccc4C(=O)N2CCN3C(=O)c2cc(F)c(F)c(F)c2)cc1C` [VU6001005]?
Answer: improvement to rat intrinsic clearance relative to VU6000181 [4]: negligible improvement; reduction of human in vitro intrinsic clearance relative to VU6000181 ([5]; OCD3 for OCH3): ~ 5 fold; CLint scaled ([5]; human, microsomes): 72.9 mL/min/kg
